Tests used:
[1] = biological target: T1, Induced myeloid leukemia cell differentiation protein Mcl-1 (Homo sapiens, UniProt Q07820); assay: Inhibition of FAM-Bid peptide binding to Mcl1 (unknown origin) expressed in Escherichia coli BL21 by fluorescence polarization-based binding assay
[2] = biological target: T1, Induced myeloid leukemia cell differentiation protein Mcl-1; assay: Inhibition of biotin-Bim peptide binding to Mcl1 (unknown origin) expressed in Escherichia coli BL21 by ELISA
RS4-11 = assay: Induction of apoptosis in Bcl2 dependent human RS4:11 cells after 48 hrs by Annexin V staining based flow cytometry; assay type: functional, cell-based; settings: RS4-11, 48 h
K562 = assay: Induction of apoptosis in Mcl1 dependent human K562 cells after 48 hrs by Annexin V staining based flow cytometry; assay type: functional, cell-based; settings: K562, 48 h
[3] = biological target: T1, Induced myeloid leukemia cell differentiation protein Mcl-1; assay: Binding affinity to Mcl1 (unknown origin) expressed in Escherichia coli BL21 by ITC assay

T1 sequence (Q07820 whole entry): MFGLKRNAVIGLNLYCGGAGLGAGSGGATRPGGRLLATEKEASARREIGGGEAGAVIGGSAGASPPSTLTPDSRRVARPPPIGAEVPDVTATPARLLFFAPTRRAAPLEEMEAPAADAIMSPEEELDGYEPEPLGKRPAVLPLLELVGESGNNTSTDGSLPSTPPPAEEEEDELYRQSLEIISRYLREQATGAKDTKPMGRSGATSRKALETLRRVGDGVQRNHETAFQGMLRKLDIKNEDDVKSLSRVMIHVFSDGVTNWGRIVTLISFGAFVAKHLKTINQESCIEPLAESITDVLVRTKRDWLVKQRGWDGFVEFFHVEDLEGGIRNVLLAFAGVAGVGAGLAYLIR

Compound	IC50 ([1]; read-out: IC50) [µM]	Ki ([1]; read-out: Ki) [µM]	IC50 [2] [µM]	Ki [2] [µM]	further results
Cc1cc2c(C(C)C)c(O)c(O)c(C=O)c2c(O)c1-c1c(C)cc2c(C(C)C)c(O)c(O)c(C=O)c2c1O [GOSSYPOL]	4.8	0.19	0.17	0.214	
CC(C)c1ccc(Sc2cnc(O)c(C(=O)NCCCc3ccccc3)c2)cc1			0.192	0.191	
N#CC1=C2C(=NC1=O)c1cccc3c(N4CCSCC4)ccc2c13			0.046	0.0457	
CCC(C)(C)c1ccc(Sc2cnc(O)c(C#N)c2)cc1	178	7.09			
CN(C)CC[C@H](CSc1ccccc1)Nc1ccc(S(=O)(=O)NC(=O)c2ccc(N3CCN(Cc4ccccc4-c4ccc(Cl)cc4)CC3)cc2)cc1[N+](=O)[O-] [ABT 737]					IC50 (RS4-11): 0.27 µM; IC50 (K562): 16.4 µM
CCCCNC(=O)c1cc(Sc2ccc(C(C)C)cc2)c[nH]c1=O			0.241	0.224	
CC(C)c1ccc(Sc2cnc(O)c(C(=O)NCc3ccccc3)c2)cc1			0.054	0.0537	Kd [3]: 0.98 µM; IC50 (K562): 0.84 µM
O=C1C(=O)c2cccc3cccc1c23 [ACENAPHTHOQUINONE]	1420	57			
N#Cc1cc(-c2ccc(-c3ccccc3)cc2)cnc1O	316	12.6			
N#Cc1ccc[nH]c1=O	2730	109			
N#CC(C#N)=c1c(=O)c2cccc3cccc1c32	71.5	2.85			
N#Cc1cc(-c2cccc3ccccc23)cnc1O	158	6.32			
COc1ccnc(O)c1C#N					IC50 [1]: Not Active; Ki [1]: Not Active
CC(C)c1ccc(Sc2cc(C#N)c(=O)n(Cc3ccccc3)c2)cc1	383	15.3			

Second part, led by results:

IC50 ([1]; read-out: IC50) [µM]	Ki ([1]; read-out: Ki) [µM]	IC50 [2] [µM]	Ki [2] [µM]	Compound	further results
121	4.83			N#Cc1cc(Sc2ccc(Br)cc2)c[nH]c1=O	
205	8.19			N#Cc1cc(-c2ccc(Cl)cc2)c[nH]c1=O	
21.5	0.86	0.89	0.891	CC(C)c1ccc(Sc2c[nH]c(=O)c(C#N)c2)cc1	
133	5.31			N#Cc1cc(Sc2ccc(N)cc2)c[nH]c1=O	
63.1	2.52			Cc1ccc(Sc2cnc(O)c(C#N)c2)cc1	
261	10.4			N#Cc1cc(-c2ccccc2)c[nH]c1=O	
82.2	3.29			N#Cc1cc(Sc2ccccc2)c[nH]c1=O	
		0.501	0.468	CC(C)NC(=O)c1cc(Sc2ccc(C(C)C)cc2)c[nH]c1=O	

From ChEMBL document CHEMBL2311300, “Fragment-based design, synthesis, and biological evaluation of N-substituted-5-(4-isopropylthiophenol)-2-hydroxynicotinamide derivatives as novel Mcl-1 inhibitors” (Eur J Med Chem, 2013)
